The target in assay [1] is Replicase polyprotein 1ab (Severe acute respiratory syndrome coronavirus 2) (UniProt P0DTD1). Kind of assay: Inhibition of SARS Cov-2 papain-like protease extracted form Escherichia coli Rosetta (DE3) using fluorogenic substrate RLRGG-AMC assessed as inhibition rate by measuring fluorescent signal at 4 uM incubated for 30 mins relative to control.
For assay [2], the target named is Replicase polyprotein 1ab (Severe acute respiratory syndrome coronavirus 2, UniProt P0DTD1). Kind of assay: Inhibition of SARS Cov-2 papain-like protease extracted form Escherichia coli Rosetta (DE3) using fluorogenic substrate RLRGG-AMC assessed as inhibition rate by measuring fluorescent signal incubated for 30 mins.

On to `C[C@@H](NC(=O)c1cc(N)ccc1O)c1cccc2ccccc12`, for which the inhibition (usually the change of the read-out against control, counted positive when it falls) in assay [1] came out at 6%.
As for `CCOC(=O)CCCNCc1ccc(-c2cccc([C@@H](C)NC(=O)c3cc(N)ccc3C)c2)s1`, the inhibition result in assay [1] is listed as “Active; Compound Showed Weak Inhibitory Effect”.
Consider `Cc1ccc(NC(=O)c2cccnc2O)cc1C(=O)N[C@H](C)c1cccc2ccccc12`, for which, in assay [1], the inhibition result was “Active; Compound Showed Weak Inhibitory Effect”.
On to `COC(=O)Cc1ccc(CNc2ccc(C)c(C(=O)N[C@H](C)c3cccc4ccccc34)c2)cc1`, for which the inhibition in assay [1] is 21%. The IC50 (in general, the concentration needed to halve the response being measured) in assay [2] stood at 2910 nM.
Take `CCOC(=O)[C@@H]1CCN(Cc2ccc(-c3cccc([C@@H](C)NC(=O)c4cc(NC5CNC5)ccc4C)c3)s2)C1`: in assay [2], the IC50 was determined as 1940 nM.
Regarding `Cc1ccc(NC2CNC2)cc1C(=O)N[C@H](C)c1cccc(-c2ccc(CN3CC[C@@H](C(=O)O)C3)s2)c1`, the IC50 in assay [2] was found to be 270 nM.
Regarding `Cc1ccc(NC(=O)c2ccc(Cl)s2)cc1C(=O)N[C@H](C)c1cccc2ccccc12`, the inhibition in assay [1] stood at 13%. For the same compound, the IC50 in assay [2] is greater than 20000 nM.
Take `Cc1ccc(NCc2ccc(CC(=O)O)cc2)cc1C(=O)N[C@H](C)c1cccc2ccccc12`: the inhibition entry in assay [1] is reported as “Active; Compound Showed Weak Inhibitory Effect”.
Turning to `CCOC(=O)CCCNCc1ccc(-c2cccc([C@@H](C)NC(=O)c3cc(NC4CNC4)ccc3C)c2)s1`, the IC50 in assay [2] came to 250 nM.
On to `Cc1ccc(NC(=O)Oc2ccc([N+](=O)[O-])cc2)cc1C(=O)N[C@H](C)c1cccc2ccccc12`, for which the inhibition in assay [1] was 27%.
Turning to `Cc1ccc(NC(=O)c2cc(Br)cnc2O)cc1C(=O)N[C@H](C)c1cccc2ccccc12`, in assay [1], the inhibition result is “Active; Compound Showed Weak Inhibitory Effect”.
For the compound `Cc1ccc(N)cc1C(=O)N[C@H](C)c1cccc2ccccc12`, the inhibition in assay [1] is 68%.
The same measure, in the same setting: the result for `Cc1ccc(N)cc1C(=O)N[C@H](C)c1cccc(-c2ccc(C=O)s2)c1` reads 30%.
Turning to `Cc1ccc(NC(=O)c2cc(Br)cnc2Cl)cc1C(=O)N[C@H](C)c1cccc2ccccc12`, in assay [1], the inhibition was determined as 19%.
Take `COC(=O)[C@@H](CCC(=O)OC(C)(C)C)NCc1ccc(-c2cccc([C@@H](C)NC(=O)c3cc(N)ccc3C)c2)s1` (racemic): the inhibition in assay [1] worked out at 81%. The IC50 in assay [2] came to 4710 nM.
For the compound `COc1ccc([N+](=O)[O-])c(C(=O)Nc2ccc(C)c(C(=O)N[C@H](C)c3cccc4ccccc34)c2)c1`, the inhibition in assay [1] was determined as 53%.
As for `Cc1ccc(NC(=O)c2ccnc(O)c2)cc1C(=O)N[C@H](C)c1cccc2ccccc12`, the inhibition in assay [1] was found to be 74%.
For the compound `Cc1ccc(NC(=O)c2cccs2)cc1C(=O)N[C@H](C)c1cccc2ccccc12`, the inhibition result in assay [1] is reported as “Active; Compound Showed Weak Inhibitory Effect”.
As to `CC[C@@H](C)[C@@H](NC(=O)c1ccc(-c2cccc([C@@H](C)NC(=O)c3cc(N)ccc3C)c2)s1)C(=O)OC`, in assay [1], the inhibition worked out at 73%. For the same compound, the IC50 in assay [2] is 2720 nM.
